Some test systems named below: A549; ACHN; CAKI-1; HOP-62; HT-29; KM12; MCF7; MDA-MB-231; MDA-N; MOLT-4; NCI-H522; RPMI-8226; SK-MEL-28; SK-MEL-2; U-251; UACC-257; K562; RXF 393.
Holding throughout (assay): inhibition of tumour cell growth, NCI panel, 48 h

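Five concentrations, 48 hours, 96-well plates. The concentration for 50% growth inhibition is given as GI50.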 Calls of active or inactive are those of the source. Rule as the data show it: active = GI50 up to about 1.1 µM and inactive = higher. Square brackets hold non-standard residues; d marks the D form. Peptide text beside a SMILES is read from it. pGlu = O=C1CC[C@@H](C(=O)O)N1; Thz = O=C(O)[C@@H]1CSCN1

With `CC(C)C1(NC(=O)C2CC3c4cccc5[nH]cc(c45)CC3N(C)C2)OC2(O)C3CCCN3C(=O)C(Cc3ccccc3)N2C1=O` (centres undefined), the GI50 with A549 is 7.21 µM (inactive); with ACHN, 21.4 µM (inactive); in the test on CAKI-1 it was 26 µM (inactive); in the test with HOP-62 it was > 100 µM (inactive); in the test on HT-29, 11.6 µM (inactive); in the test with KM12, 15.2 µM (inactive). The GI50 was 13.6 µM (inactive) in the test with MCF7; 17.7 µM (inactive) in the test with MDA-MB-231; 22.3 µM (inactive) with MDA-N; 3.81 µM (inactive) in the test with MOLT-4; 38.9 µM (inactive) in the test with NCI-H522; 4.44 µM (inactive) in the test with RPMI-8226. The GI50 in the test on SK-MEL-28 was 24.9 µM (inactive); in the test with SK-MEL-2 it was 29.2 µM (inactive); with U-251 it was 34.3 µM (inactive); in the test on UACC-257 it was 48.1 µM (inactive).
In the case of `COc1ccc(-c2c(C#N)c(N)nc(Sc3ccccc3N)c2C#N)cc1`, the GI50 in the test on A549 was 17.6 µM (inactive); in the test with ACHN, 13.1 µM (inactive); in the test on CAKI-1 it was 8.36 µM (inactive); with HOP-62, 6.1 µM (inactive); in the test on HT-29 it was 7.69 µM (inactive); in the test on K562 it was 32.3 µM (inactive). The GI50 with KM12 was 44.9 µM (inactive); in the test with MCF7 it was 14.6 µM (inactive); with MDA-MB-231 it was 11.7 µM (inactive); with MDA-N it was > 100 µM (inactive); with MOLT-4, > 71 µM (inactive); in the test with NCI-H522 it was 10 µM (inactive). The GI50 in the test on RPMI-8226 is > 75.5 µM (inactive); with RXF 393, 6.46 µM (inactive); in the test with SK-MEL-28 it was > 50.9 µM (inactive); in the test with SK-MEL-2 it was 9.57 µM (inactive); with U-251, 13.4 µM (inactive); with UACC-257 it was 39.3 µM (inactive).
Regarding `O=C(NCCc1n[nH]c2c1C(=O)C=C(Nc1ccccc1)C2=O)OCc1ccccc1`, the GI50 with A549, in the test on ACHN, in the test on CAKI-1, with HT-29, in the test on KM12 and in the test on MCF7 was > 100 µM (inactive) each time. For the same molecule, the GI50 in the test with MDA-MB-231, with MDA-N, in the test on MOLT-4, with NCI-H522, with RPMI-8226 and in the test on RXF 393 was > 100 µM (inactive) throughout. The GI50 with SK-MEL-2, in the test with U-251 and with UACC-257 was > 100 µM (inactive) in each case.
As for `CCOC(=O)NN(C(=O)OCC)c1ccc(/N=N/c2ccc(OC)cc2)n1C`, the GI50 in the test on A549 was 23 µM (inactive); with ACHN, 23.6 µM (inactive); in the test with HOP-62 it was 26.9 µM (inactive); in the test with HT-29, 22.4 µM (inactive); in the test on K562, 23.1 µM (inactive); in the test with KM12, 24 µM (inactive). For the same molecule, the GI50 with MCF7 is 6 µM (inactive); in the test with MDA-MB-231 it was 19.8 µM (inactive); in the test on MDA-N, 19.7 µM (inactive); with MOLT-4, 43.7 µM (inactive); in the test with NCI-H522, 18 µM (inactive); in the test with RPMI-8226 it was 19.9 µM (inactive). Moreover, the GI50 is 32.4 µM (inactive) in the test with RXF 393, 10.8 µM (inactive) with SK-MEL-2, 29.9 µM (inactive) in the test with U-251 and 23.1 µM (inactive) in the test with UACC-257.
Regarding `O=C(c1ccccc1)c1ccc(N2C(=O)/C(=C/c3cccc(Oc4ccccc4)c3)N=C2c2ccccc2)c(N2C(=O)/C(=C/c3cccc(Oc4ccccc4)c3)N=C2c2ccccc2)c1`, the GI50 with A549 was 31.6 µM (inactive); in the test on ACHN it was 53 µM (inactive); with CAKI-1 it was 41.5 µM (inactive); in the test with HOP-62, 67.5 µM (inactive); with HT-29, 30.9 µM (inactive); in the test with K562, 9.42 µM (inactive). For the same molecule, the GI50 in the test with KM12 is 24.5 µM (inactive); with MCF7, 24.9 µM (inactive); with MDA-MB-231, 45.8 µM (inactive); with MDA-N, 5.09 µM (inactive); with MOLT-4 it was 11.9 µM (inactive); in the test with NCI-H522 it was 11.4 µM (inactive). Besides, the GI50 in the test on RPMI-8226 was 19.3 µM (inactive); in the test with RXF 393, 23.8 µM (inactive); with SK-MEL-28, 51.3 µM (inactive); in the test with SK-MEL-2, 17.7 µM (inactive); in the test on U-251, 31.3 µM (inactive); in the test on UACC-257 it was 17.7 µM (inactive).
As to `CCO/C(=N/S(=O)(=O)C(F)(F)F)N(C(C)C)C(C)C`, the GI50 in the test with A549, with ACHN, in the test with CAKI-1, with HT-29, in the test with KM12 and in the test on MCF7 was > 100 µM (inactive) throughout. For the same molecule, the GI50 in the test with MDA-MB-231, in the test on MDA-N, in the test with MOLT-4, with NCI-H522, in the test with RPMI-8226 and with RXF 393 was > 100 µM (inactive) each time. The GI50 with SK-MEL-28, with SK-MEL-2, in the test with U-251 and with UACC-257 was > 100 µM (inactive) in each case.
`CCC(=O)O[C@H]1CC[C@H]2[C@@H]3CCC4=C/C(=N/OC(=O)c5cccc6cc7ccccc7nc56)CC[C@]4(C)[C@H]3CC[C@]12C`: the GI50 is 71.1 µM (inactive) in the test with A549; > 100 µM (inactive) with ACHN; > 100 µM (inactive) in the test on CAKI-1; 50.5 µM (inactive) with HOP-62; 42.9 µM (inactive) in the test on HT-29; > 100 µM (inactive) in the test with K562. Also, the GI50 with KM12 was 40.7 µM (inactive); with MCF7 it was 42.2 µM (inactive); in the test with MDA-MB-231, > 100 µM (inactive); with MDA-N, 51.5 µM (inactive); with MOLT-4 it was > 100 µM (inactive); in the test on NCI-H522, 41.4 µM (inactive). In addition, the GI50 is 50.4 µM (inactive) in the test with RPMI-8226; > 100 µM (inactive) with RXF 393; 90.2 µM (inactive) in the test with SK-MEL-28; 55.2 µM (inactive) with SK-MEL-2; 51.9 µM (inactive) in the test with U-251; 63.4 µM (inactive) with UACC-257.
`CSc1nc(SC)c2c(C)cn(C3OC(C)C(O)C(O)C3O)c2n1` (centres undefined): the GI50 in the test on A549 was 74.5 µM (inactive); with ACHN it was 58.2 µM (inactive); in the test on CAKI-1 it was < 0.01 µM (active); in the test on HOP-62, > 100 µM (inactive); with HT-29 it was 53.7 µM (inactive); with KM12, 56.8 µM (inactive). For the same molecule, the GI50 with MCF7 was 58.9 µM (inactive); in the test on MDA-MB-231, 52.7 µM (inactive); in the test on MDA-N it was 67.6 µM (inactive); with MOLT-4, 39.3 µM (inactive); in the test with NCI-H522 it was 96.2 µM (inactive); with RPMI-8226 it was 42.4 µM (inactive). For the same molecule, the GI50 in the test on RXF 393 was > 100 µM (inactive); in the test on SK-MEL-28, 84.3 µM (inactive); with SK-MEL-2, 73.5 µM (inactive); in the test with U-251, 62.7 µM (inactive).
On to `CCCCCC[C@H]([C@H](C)O)n1cnc2c(N)ncnc21`, for which the GI50 in the test with A549 is > 100 µM (inactive); with ACHN, 61.5 µM (inactive); in the test on CAKI-1 it was > 100 µM (inactive); in the test with HOP-62, > 100 µM (inactive); in the test on HT-29, > 100 µM (inactive); in the test on K562, > 100 µM (inactive). Moreover, the GI50 in the test with KM12, with MCF7, with MDA-MB-231, in the test with MDA-N, in the test with MOLT-4 and in the test with RPMI-8226 was > 100 µM (inactive) each time. Also, the GI50 was > 100 µM (inactive) in the test on RXF 393; 49.3 µM (inactive) in the test with SK-MEL-28; > 100 µM (inactive) in the test on SK-MEL-2; > 100 µM (inactive) in the test with U-251; > 100 µM (inactive) in the test with UACC-257.
For `N#Cc1nc(-c2cc([N+](=O)[O-])cc([N+](=O)[O-])c2)oc1N`, the GI50 in the test with A549, in the test on ACHN, in the test with CAKI-1, with HOP-62, in the test with HT-29 and in the test on K562 was > 10 µM (inactive) in each case. Further, the GI50 with KM12, in the test with MCF7, in the test with MDA-MB-231, in the test with MDA-N, in the test with MOLT-4 and in the test with NCI-H522 was > 10 µM (inactive) throughout. Besides, the GI50 in the test with RPMI-8226, in the test with RXF 393, in the test with SK-MEL-28 and in the test on UACC-257 was > 10 µM (inactive) each time.
For `Cc1cc(C)c(O)c(CN2CCN(C(C)C)CCN(C(C)C)CC2)c1`, the GI50 in the test on A549 is 32.3 µM (inactive); in the test on ACHN, 32.1 µM (inactive); in the test with CAKI-1, 75.2 µM (inactive); in the test on K562 it was 17.9 µM (inactive); with KM12 it was 17 µM (inactive); in the test with MCF7, 20.8 µM (inactive). The GI50 in the test on MDA-MB-231 was 48.3 µM (inactive); in the test with MDA-N, 20.6 µM (inactive); with MOLT-4, 11.7 µM (inactive); with NCI-H522, 16.1 µM (inactive); in the test on RPMI-8226 it was 21.9 µM (inactive); in the test on RXF 393 it was 16 µM (inactive). The GI50 in the test with SK-MEL-28 is 24.7 µM (inactive); in the test on SK-MEL-2, 37.8 µM (inactive); in the test on U-251 it was 37 µM (inactive); with UACC-257 it was 18.5 µM (inactive).
`O=C1CC[C@@H](C(=O)N2CSC[C@H]2C(=O)O)N1` [PIDOTIMOD] ([pGlu]-[Thz]-OH): the GI50 with A549, in the test on ACHN, with CAKI-1, in the test with HOP-62, with HT-29 and in the test on K562 was > 100 µM (inactive) each time. In addition, the GI50 in the test on KM12, with MCF7, in the test on MDA-MB-231, in the test with MDA-N, in the test on MOLT-4 and in the test on NCI-H522 was > 100 µM (inactive) each time. Further, the GI50 in the test with RPMI-8226, in the test with RXF 393, in the test on SK-MEL-28, in the test with SK-MEL-2 and in the test on UACC-257 was > 100 µM (inactive) in each case.

Values taken from ChEMBL document CHEMBL1201862, “PubChem BioAssay data set” (2004).
